“And” between values parts separate entries of the source, which are not always exact repeats. Equal values may be shown once.
Key:
Format in all cases: in vivo, human
[1] = Adverse events in patients with PKU on PTC923 or sapropterin dihydrochloride; conditions: for Headache (all-cause AE): transient
Source text: PTC923 safety was monitored and adverse events (AEs) were coded using the Medical Dictionary for Regulatory Activities (MedDRA®) version 21.0. Treatment-emergent adverse events (TEAEs) were defined as AE that began on or after first dose of study drug. A TEAE was associated with the study treatment currently being received, or the last study treatment before its onset. A treatment-related TEAE was, in the judgment of the investigator possibly, probably or definitely related to treatment. A serious AE (SAE) was defined as resulting in death, life-threatening AE, inpatient hospitalization or prolongation of existing hospitalization, a persistent or significant disability/incapacity or a substantial disruption of the ability to conduct normal life functions, or a congenital anomaly/birth defect.

[2] = Comparison of adverse events in fed and fasted subjects; conditions: single dose 10 mg/kg, twelve subjects
Procedure: Method: Twelve subjects were given a single dose (10 mg/kg) of sepiapterin under fasting conditions and then 7 days later under fed conditions. Standard definitions of adverse events (AE) were used. All-cause AE were those that occurred at any time; treatment-emergent adverse events (TEAE) were those that occurred at or after the time of administration of study treatment. TEAEs related to study drug were based on the opinion of the investigator. Serious AE were defined as life threatening or caused death, hospitalization or prolongation of existing hospitalization, or were a persistent or significant disability/incapacity or a substantial disruption of the ability to conduct normal life functions, or a congenital anomaly/birth defect.

[3] = test system: blood Phe; assay: Reduction of blood Phe in patients with PKU, randomized crossover of PTC923 vs sapropterin dihydrochloride; conditions: for Proportion of patients achieving blood Phe <360 μmol/L: n of 24; for Mean (SD) blood Phe, At baseline: Day 1 pre-dose; for Least squares mean (SE) change from baseline in blood Phe / Mean (SD) blood Phe, Change / Mean (SD) blood Phe, On treatment: 7 days; for Mean (SD) blood Phe, On treatment: mean of days 3, 5 and 7
Procedure: Following screening for eligibility, a 7-day run-in period commenced. Patients then received 7 days of once-daily oral treatment with either PTC923 20 mg/kg/day (“low dose”), or PTC923 60 mg/kg/day or sapropterin dihydrochloride, in a random order. PTC923 (formerly CNSA-001) is oral sepiapterin. Each patient was randomized to one of six treatment sequences (FIG. 2). The randomization in six different treatment sequences was intended to minimize carry over effect, treatment period effect, patient fatigue, and natural fluctuations in blood Phe levels. A 7-day washout period separated each active treatment period. Patients were asked to maintain their usual pre-study diet, including consumption of amino acid mixtures if prescribed, and were monitored throughout the study by a metabolic dietician.
Blood samples for measurement of Phe were taken on 7, 5, 3, and 1 days before randomization. During treatment periods, blood was taken pre-dose for day 1 and post-dose for days 3, 5 and 7. During the washout periods, blood was taken for measurement of Phe on days 1, 3, 5, and 7. All samples were taken under fasting conditions or no earlier than 3 hours following a meal and at the same time of day. Blood Phe was measured using a validated LC-MS-MS technique of dried blood sampling via Volumetric Absorptive Microsampling (VAMS®) using Mitra® 4-sampler clamshells, at a central bioanalytical laboratory (Agilex Biolabs Pty Ltd).
The main objective of the study was to assess the efficacy of PTC923 measured as the mean blood Phe change from baseline. The efficacy population consisted of all patients who were randomized and had blood Phe measurements before treatment and at days 3, 5 and 7 of treatment from at least one treatment period. The safety population consisted of all patients who were randomized and who received any dose of study treatment. The sample size calculation was based on an all-comers, placebo-controlled regulatory study of sapropterin with an observed mean decrease in blood Phe of 99 μmol/L and standard deviation of 220 μmol/L, and assumed a true mean decrease in blood Phe of 300 μmol/L with 80% power utilizing a 2-sided α of 0.05.
Response to PTC923 was evaluated by measuring the mean change from baseline in blood Phe (calculated as the mean of measurements at days 3, 5 and 7 of each treatment period). Day 1 pre-dose blood Phe concentrations for each treatment period served as the individual patient specific baseline for that period.
The change from baseline in blood Phe of each treatment period was modelled using a linear mixed model for repeated measures (MMRM). The efficacy model included fixed effects for baseline for each treatment period, treatment group, sequence, period, and a random subject effect within each sequence, with a first order autoregressive AR (1) covariance structure. No unplanned covariates were included.
Pairwise comparisons in changes from baseline in Phe were performed between each PTC923 treatment and sapropterin treatment by calculating the least squares means with Dunnet's method of adjustment for multiple comparisons. The estimated change in blood Phe levels, their standard errors (SE) and associated p-values were calculated for each pairwise comparison. Dunnet's method of adjustment was used to account for the multiple comparisons of the test groups against the control group. This adjustment ensured that the overall Type I error rate under the null hypothesis was maintained despite multiple test groups being compared to the single control group.
The overall mean changes in blood Phe for each treatment were calculated and the standard deviations (SD) were determined.
A prespecified sensitivity analysis excluded treatment periods where baseline Phe was <300 μmol/L and a responder analysis looked at patients with baselines ≥300 μmol/L who responded to sapropterin and/or to PTC923 treatment by ≥20% reduction.

[4] = All subjects (N = 24), 20 mg/kg/day oral
[5] = All subjects (N = 24), 60 mg/kg/day oral
[6] = Subjects with classical PKU (N = 11), 20 mg/kg/day oral
[7] = Subjects with classical PKU (N = 11), 60 mg/kg/day oral
[8] = patients on PTC923 60mg/kg with at least 30% reduction in Phe

C[C@H](O)C(=O)C1=Nc2c(nc(N)[nH]c2=O)NC1 [sepiapterin, Sepiapterin]
Patients reporting any adverse event ([1]; 20 mg/kg): 25%
Patients reporting severe AE ([1]; 20 mg/kg): 4%
Patients reporting treatment-related AE ([1]; 20 mg/kg): 0%
Headache (all-cause AE) ([1]; 20 mg/kg): 4%
Patients reporting any adverse event ([1]; 60 mg/kg): 29%
Patients reporting severe AE ([1]; 60 mg/kg): 0%
Patients reporting treatment-related AE ([1]; 60 mg/kg): 13%
Headache (all-cause AE) ([1]; 60 mg/kg): 17%
TEAE ([2]; Fasted): 4
TEAE related to study drug ([2]; Fasted): 1
≥1 AE ([2]; Fasted): 5
TEAE ([2]; Fed): 1
TEAE related to study drug ([2]; Fed): 0
≥1 AE ([2]; Fed): 1
Proportion of patients achieving blood Phe <360 μmol/L ([3]; 20 mg/kg): 46%
Proportion of patients achieving blood Phe <360 μmol/L ([3]; 60 mg/kg): 50%
LSM difference in blood Phe change vs. sapropterin dihydrochloride ([3]; 11 patients with classical PKU, PTC923 60 mg/kg): -148.0 µmol/L
Mean (SD) blood Phe, At baseline ([3]; All subjects (N = 24), 20 mg/kg period): 694.2 (396.0) μmol/L
Least squares mean (SE) change from baseline in blood Phe [3, 4]: −146.9 (41.8) μmol/L
Mean (SD) blood Phe, Change [3, 4]: −143.7 (224.8) μmol/L
Mean (SD) blood Phe, On treatment [3, 4]: 550.4 (433.7) μmol/L
Mean (SD) blood Phe, At baseline ([3]; All subjects (N = 24), 60 mg/kg period): 727.8 (388.2) μmol/L
Least squares mean (SE) change from baseline in blood Phe [3, 5]: −206.4 (41.8) μmol/L
Mean (SD) blood Phe, Change [3, 5]: −210.1 (235.8) μmol/L
Mean (SD) blood Phe, On treatment [3, 5]: 517.7 (411.7) μmol/L
Least squares mean change from baseline in blood Phe to first Phe measurement (Day 3) ([3]; Day 3, 20 mg/kg): -167.5 µmol/L
Least squares mean change from baseline in blood Phe to first Phe measurement (Day 3) ([3]; Day 3, 60 mg/kg): -206.6 µmol/L
LSM difference in blood Phe change vs. sapropterin dihydrochloride ([3]; Day 3, PTC923 20 mg/kg, underlying changes in μmol/L): −95.2
LSM difference in blood Phe change vs. sapropterin dihydrochloride ([3]; Day 3, PTC923 60 mg/kg, underlying changes in μmol/L): −131.3
Effect on blood Phe compared with sapropterin dihydrochloride 20 mg/kg (in words) ([3]; PTC923 20 mg/kg): numerically larger
Reducing blood Phe compared with sapropterin dihydrochloride 20 mg/kg (in words) ([3]; PTC923 60 mg/kg, p=0.0098): significantly more effective
Mean absolute reduction in plasma phenylalanine (FIG. 1) ([3]; PTC923 (60 mg/kg/day)): over 200 micromole per liter
Mean (SD) blood Phe, At baseline ([3]; Subjects with classical PKU (N = 11), 20 mg/kg period): 944.6 (354.6) μmol/L
Mean (SD) blood Phe, Change [3, 6]: −75.5 (201.8) μmol/L
Least squares mean (SE) change from baseline in blood Phe ([3]; Subjects with classical PKU (N = 11), 20 mg/kg/day oral, listed as PTC923, 20 mg/kg/day): −71.5 μmol/L and −71.5 (61.8) μmol/L
Mean (SD) blood Phe, On treatment [3, 6]: 869.1 (424.1) μmol/L
Mean (SD) blood Phe, At baseline ([3]; Subjects with classical PKU (N = 11), 60 mg/kg period): 947.2 (363.0) μmol/L
Mean (SD) blood Phe, Change [3, 7]: −146.0 (187.7) μmol/L
Least squares mean (SE) change from baseline in blood Phe ([3]; Subjects with classical PKU (N = 11), 60 mg/kg/day oral, listed as PTC923, 60 mg/kg/day): −150.8 μmol/L and −150.8 (63.1) μmol/L
Mean (SD) blood Phe, On treatment [3, 7]: 801.2 (396.5) μmol/L
Classical PKU subjects responding with a decrease in phenylalanine levels of at least 20% ([3]; classical PKU subjects): about 45%
Number of patients showing blood Phe reduction of ≥20%, higher than with sapropterin ([3]; cofactor responder analysis): 50%
Number of subjects normalized (day 7 blood phenylalanine less than 120 micromole per liter) compared to sapropterin dihydrochloride ([3]; day 7): 3-4 times
Least squares mean change from baseline in blood Phe ([3]; group of 12 responders (Phe reduction ≥20%, baseline ≥300 μmol/L), 20 mg/kg): -234.8 µmol/L
Least squares mean change from baseline in blood Phe ([3]; group of 12 responders (Phe reduction ≥20%, baseline ≥300 μmol/L), 60 mg/kg): -322.2 µmol/L
LSM difference in blood Phe change vs. sapropterin dihydrochloride ([3]; group of 12 responders, PTC923 60 mg/kg): -182.5 µmol/L
Subject-reported effects (in words) ([3]; human, in vivo): improvement in sleep quality and better focus
Times more likely to reach normalized blood phenylalanine (less than 120 micromole per liter) compared to sapropterin dihydrochloride ([3]; human, in vivo): 13.45 times
Non-classical subjects normalized (blood phenylalanine less than 120 micromole per liter) ([3]; non-classical subjects): 46%
Proportion of patients achieving blood Phe <360 μmol/L ([3]; on either dose of PTC923): 54%
More subjects responded than to sapropterin dihydrochloride ([3]; overall responders): 60%
Absolute Phe reduction from baseline [3, 8]: -485.3 µmol/L
Absolute mean percentage change in Phe from baseline [3, 8]: -72.5%
Least squares mean change from baseline in blood Phe ([3]; sensitivity analysis population (excluding periods with baseline Phe <300 μmol/L), 20 mg/kg): -167.8 µmol/L
Least squares mean change from baseline in blood Phe ([3]; sensitivity analysis population (excluding periods with baseline Phe <300 μmol/L), 60 mg/kg): -226.9 µmol/L
LSM difference in blood Phe change vs. sapropterin dihydrochloride ([3]; sensitivity analysis population, PTC923 60 mg/kg): -121.4 µmol/L

From US20220362249A1, “METHODS FOR TREATING […]” (PTC Therapeutics MP, Inc., priority 2019, published 2022)
